Data reported in patent US20230278972A1, “SUBSTITUTED HALOALKYL SULFONANILIDE HERBICIDES” (FMC Corporation, priority 2020, published 2023).

Experiments:
Assay type in all cases: in vivo
[1] = system: Foxtail, Giant (giant foxtail, Setaria faberi); test: Test A1 preemergence, Foxtail, Giant
Method in brief: (§1)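 Herbicidal response was scored on plants treated either preemergence, by directed spray onto soil of a loam–sand blend after sowing, or postemergence on potted plants at the one- to two-leaf stage, 2–10 cm high. Test chemicals were carried in a non-phytotoxic solvent mix with surfactant.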

[2] = system: Oat, Wild (wild oat, Avena fatua); test: Test A1 preemergence, Oat, Wild
Method in brief: as §1

[3] = system: ragweed (common ragweed, Ambrosia artemisiifolia); test: Test A1 preemergence, ragweed
Method in brief: as §1

[4] = system: Foxtail, Giant (giant foxtail, Setaria faberi); test: Test A1 postemergence, Foxtail, Giant; details: Postemergence
Method in brief: (§2)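 Seeds were first planted into a blend of loam soil and sand and given a preemergence directed soil spray. In parallel, pots of the same soil were sown for postemergence application once plants reached 2 to 10 cm and the one- to two-leaf stage. Both used surfactant-containing non-phytotoxic solvent formulations.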

kochia (Bassia scoparia) = test: Test A1 postemergence, kochia; details: Postemergence
Method in brief: as §2

[5] = system: Pigweed, Palmer (palmer amaranth, palmer pigweed, Amaranthus palmeri); test: Test A1 postemergence, Pigweed, Palmer; details: Postemergence
Method in brief: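 Postemergence species (ragweed, Palmer pigweed, wild oat) were sprayed at one- to two-leaf stage, 2 to 10 cm tall. Corn was treated preemergence by directed soil spray. Both used a loam soil/sand blend and compounds in a non-phytotoxic solvent mixture with surfactant.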

[6] = system: wheat (Triticum aestivum); test: Test A1 postemergence, wheat; details: Postemergence
Method in brief: as §2

[7] = system: barnyardgrass (Echinochloa crus-galli); test: Test B1 flooded paddy test, barnyardgrass; details: 250 g ai/ha, Flood, applied to paddy water, 2-leaf stage, visually evaluated after 10 to 14 days
Text: (§3) A dash (-) response means no test result.

rice (Oryza sativa) = test: Test B1 flooded paddy test, rice; details: 250 g ai/ha, Flood, applied to paddy water, 2-leaf stage, visually evaluated after 10 to 14 days
Text: as §3

[8] = 31 g ai/ha, 0 to 100 scale (0 no effect, 100 complete control)
[9] = 125 g ai/ha, 0 to 100 scale, 0 no effect, 100 complete control
[10] = 31 g ai/ha, 0 to 100 scale (0 no effect, 100 complete control), 10 days

| SMILES | Plant response rating, Foxtail, Giant [1, 8] | Plant response rating, Foxtail, Giant [1, 9] | Plant response rating, Oat, Wild [2, 8] | Plant response rating, Oat, Wild [2, 9] | Plant response rating, Ragweed [3, 8] | Plant response rating, Ragweed [3, 9] | Plant response rating, Foxtail, Giant [4, 10] | Plant response rating, Foxtail, Giant ([4]; 125 g ai/ha, 0 to 100 scale) | Plant response rating, Kochia (kochia (Bassia scoparia); [10]) | Plant response rating, Kochia (kochia (Bassia scoparia); 125 g ai/ha, 0 to 100 scale) | Plant response rating, Pigweed, Palmer [5, 10] | Plant response rating, Pigweed, Palmer ([5]; 125 g ai/ha, 0 to 100 scale) | Plant response rating, Wheat [6, 10] | Plant response rating, Wheat ([6]; 125 g ai/ha, 0 to 100 scale) | Plant response rating, Barnyardgrass (0 to 100 scale, 0 is no effect, 100 is complete control) [7] | Plant response rating, Rice (0 to 100 scale, 0 is no effect, 100 is complete control) (rice (Oryza sativa)) |
| --- | --- | --- | --- | --- | --- | --- | --- | --- | --- | --- | --- | --- | --- | --- | --- | --- |
| Cc1cc(C)c(N(COC(=O)C(C)(C)C)S(=O)(=O)C(F)(F)F)cc1C1=NOC2CCCCCC12 (single isomer, unassigned) [Compound 294] | 0 | 20 | 0 | 20 | 0 | 30 | 0 | 20 | 0 | 20 | 10 | 30 | 0 | 20 | 95 | 0 |
| Cc1cc(C)c(-n2nccc(C)c2=O)cc1NS(=O)(=O)C(F)(F)F [Compound 281] | 0 | 100 | 50 | 0 | 0 | 0 | 0 | 30 | 0 | 10 | 0 | 40 | 0 | 20 | 0 | 0 |
| COc1cnn(-c2cc(NS(=O)(=O)C(F)(F)F)c(C)cc2C)c(=O)c1OC [Compound 282] | 0 | 30 | 20 | 30 | 0 | 20 | 0 | 20 | 10 | 30 | 0 | 0 | 60 | 80 | 0 | 0 |
| Cc1c(NS(=O)(=O)C(F)(F)F)cc(C(=O)N(C)C)c(C)c1Cl [Compound 287] | 0 | 30 | 0 | 10 | 0 | 80 | 0 | 0 | 0 | 10 | 0 | 40 | 0 | 10 | 0 | 0 |
| Cc1c(NS(=O)(=O)C(F)(F)F)cc(C(=O)N(C)C)c(C)c1C [Compound 288] | 20 | 90 | 0 | 0 | 0 | 40 | 0 | 70 | 0 | 10 | 0 | 30 | 0 | 10 | 0 | 0 |
| Cc1c(NS(=O)(=O)C(F)(F)F)cc(C(=O)N2CCOCC2)c(C)c1C [Compound 289, 1,1,1-Trifluoro-N-[2,3,4-trimethyl-5-(4-morpholinylcarbonyl)phenyl]methanesulfonamide] | 30 | 100 | 20 | 50 | 0 | 60 | 40 | 90 | 20 | 60 | 10 | 60 | 20 | 50 | 85 | 10 |
| Cc1c(NS(=O)(=O)C(F)(F)F)cc(C(=O)N2CCOCC2)c(C)c1Cl [Compound 290] | 0 | 90 | 0 | 20 | 20 | 60 | 0 | 70 | 20 | 20 | 0 | 20 | 0 | 60 | 0 | 0 |
